The target of assay [1] is TRPM7 (Mus musculus, UniProt Q923J1). Description: Aequorin-based Ca2+ influx assay for TRPM7 inhibition. The format is cell-based. As to conditions: for Hill slopes for TRPM7 inhibition: Ca2+ influx assay, logistic equation fits, n = 3; for TRPM7 affinity compared to NS: relative to NS8593 (Figure 1C). On the procedure:
HEK293T cells were transfected with 2 μg TRPM7 plasmid DNA and 0.1 μg pG5A plasmid DNA. After 24 h, the cells were washed with Mg^2+-free HEPES-buffered saline (HBS) containing 140 mM NaCl, 5.4 mM KCl, 0.5 mM CaCl2, 5 mM HEPES (pH 7.4), and 10 mM glucose and resuspended in Mg^2+-free HBS. After 30 min of incubation with 5 μM coelenterazine (Biaffin) at room temperature to reconstitute the aequorin, cells were washed two times by centrifugation at 2,000 rpm for 5 min (Heraeus Pico 17 microcentrifuge, Thermo Fisher Scientific). Then, they were resuspended in Mg^2+-free HBS and plated into 96-well plates. Luminescence was detected at room temperature using a CLARIOstar microplate reader (BMG Labtech). CaCl2-containing Mg^2+-free HBS was injected in the presence or absence of the inhibitors to increase the extracellular Ca^2+ concentration to 5 mM. Cell lysis with 0.1% (v/v) Triton X-100 in the Mg^2+-free HBS was used to terminate the experiment, and total bioluminescence was measured. The analysis of the bioluminescence rates (counts/s) was done in 1-s intervals and calibrated as [Ca^2+]i values using the following equation: p[Ca^2+]i=0,332588(−log(k))+5,5593 k represents the rate of aequorin consumption.
The following equation was used to determine the IC50 values of the inhibitors: E(c)=Emin+[…]/1+c^h/IC50^h
E(c) is the functional effect at the concentration c of the inhibitor, Emin is the minimal effect, Emax is the maximal effect, IC50 is the concentration of the inhibitor that produces the half-maximal effect, and h is the Hill coefficient. GraphPad Prism 8.4.0 was used for fitting.

Assay [2] deals with HuH7 cells. Description: SA-β-Gal staining (cellular senescence) in HuH7 cells. The format is cell-based. As to conditions: for Concentration that significantly increases SA-β-Gal-positive cells (senescence induction): HuH7 cells. On the procedure: (§1) Cellular senescence of treated cells was determined using the Senescence-β-galactosidase staining kit according to the manufacturer’s instructions (Cell Signaling Technology, Danvers, MA, USA). 300 cells were counted. The ratio stained to unstained cells were used to calculate the percentage of SA-β-gal-positive cells.

The test system of assay [3] is HuH7 cells. Description: Matrigel invasion assay. Format: cell-based. As to conditions: 20 h. On the procedure: The cell invasion assay was performed using Corning BioCoat Matrigel Invasion Chambers (Corning, Tewksbury, MA, USA) according to the manufacturer’s instructions. 2.5 × 10^4 cells per well were seeded and incubated for 20 h at 37°C. The invaded cells were fixed with methanol, stained with crystal violet, and counted under a light microscope (Carl Zeiss, Oberkochen, Germany).

Assay [4] concerns the target T1, RhoA-TRPM7 interaction (Homo sapiens, UniProt Q96QT4).
T1 construct: proximity ligation assay (PLA) for endogenous TRPM7 and RhoA in HuH7 cells; endogenous in cells; host or cells: HuH7
Description: In situ proximity ligation assay for endogenous TRPM7 and RhoA. The format is cell-based. As to conditions: HuH7 cells, 6 h. On the procedure:
The DuoLink In situ Red Starter Kit Mouse/Rabbit (Sigma-Aldrich, Merck) was used according to the manufacturer’s protocol for DuoLink In Situ Solutions (Sigma-Aldrich, Merck). Anti-TRPM7/TRPM6 (Abcam, Cambridge, UK), anti-RhoA (NewEast Bioscience, Malvern, PA, USA), anti-MRTF-A (Santa Cruz Biotechnology, Santa Cruz, CA, USA), and anti-Filamin A (Thermo Fisher Scientific, Schwerte, Germany) antibodies were used as primary antibodies for incubation (Table S4). Images were recorded with a fluorescence microscope (Nikon, Düsseldorf, Germany).

The subject of assay [5] is MRTF-A. The assay is described as follows: Immunofluorescence of MRTF-A nuclear localization. The format is cell-based. As to conditions: for MRTF-A nuclear localization reduced to: HuH7 and HuH6 cells (Figures 3B and S3A). On the procedure:
Cells were fixated by a 10-min incubation with 4% paraformaldehyde in PBS. To permeabilize the cells, 0.2% Triton X-100 in PBS was used. Blocking was done with 1% BSA in PBS for 30 min at 37°C, followed by incubation with the respective primary antibodies (Table S4) for 1 h at room temperature and the secondary Alexa Fluor 488-coupled antibody (Invitrogen) (Table S5). The nucleus was stained with DAPI (Sigma-Aldrich). Images were taken using a fluorescence microscope (Nikon).

Assay [6] has as its system SRF. The assay is described as follows: SRF reporter gene (5×SRE-luciferase) assay. The format is cell-based. As to conditions: HuH7 cells, 24 h; for Reduction in SRF activity: 5 μM; for SRF activity (5×SRE-luciferase): 30 μM. On the procedure: HuH7 cells were seeded in a 12-well plate and transiently transfected with 0.25 μg 5×SRE and 0.15 μg Renilla luciferase simian virus 40 (SV40) promoter reporter as an internal control. The next day, cells were treated with inhibitors, as indicated in the figure legends, and the Dual-Luciferase Reporter Assay System (Promega, Madison, Wisconsin, USA) and the BioFix Lumi-10 (Macherey-Nagel, Düren, Germany) were used. The firefly luciferase activity was normalized to the Renilla luciferase activity to compensate for divergent transfection efficiencies.

Assay [7] deals with TSPAN5. The assay is described as follows: Immunoblotting for TSPAN5. The format is cell-based. As to conditions: HuH7 cells. On the procedure:
(§2) Proteins were denatured by boiling in Laemmli buffer at 95°C. According to their molecular weight, the proteins were separated by SDS-PAGE for 2 h at 100 V using the Bio-Rad Western Blot System (Bio-Rad, Hercules, California, USA) and the power supply peQPOWER 300 (Peqlab Biotechnology, Erlangen, Germany). The proteins were then transferred onto a polyvinylidene fluoride membrane (Merck, Darmstadt, Germany), which was activated in 100% methanol and equilibrated in a transfer buffer. The transfer was done at 350 mA for approximately 2 h. To avoid non-specific protein binding, the membrane was blocked with 5% milk powder in TBS-T. Afterward, the membrane was incubated over night at 4°C with the primary (Table S2) and the respective secondary antibodies for 1 h at room temperature (Table S3). Both was done with gentle shaking. The proteins were detected via chemiluminescence in a luminescent imager (ChemiDoc Imaging System, Bio-Rad).

The subject of assay [8] is SK3 channels. On the set-up: method as in Sørensen et al. 22. As to conditions: relative to NS8593 (Figure 1C); ref Sørensen et al. 22; cited from earlier work.
Assay [9] deals with HuH7 cells. The assay is described as follows: Cell proliferation assay (cell counting) in HuH7 cells. As to conditions: titration 2.5, 5, 7.5, 10 μM. The format is cell-based. On the procedure: Cells were seeded and counted every 24 h for 5 days by using a Neubauer counting chamber.
Assay [10] has as its system HuH6 cells. The assay is described as follows: SA-β-Gal staining (cellular senescence) in HuH6 cells. The format is cell-based. On the procedure: as §1
Assay [11] deals with MRTF-A-GFP. The assay is described as follows: FLIP assay, nuclear export of MRTF-A-GFP. Format: cell-based. As to conditions: HuH7 cells, 5 μM, compared to control cells. On the procedure: HuH7 cells were plated on 35-mm cell culture dishes and transfected with 200 ng MRTF-A-GFP and 800 ng pEF-FLAG plasmid DNA by using JetPrime (Polyplus, Illkirch, France). After treatment of the cells with the respective inhibitor, cells were imaged at 37°C, 5% CO2 in an Okolab Bold Line Cage Incubator using a Carl Zeiss LSM 700 confocal microscope with Axio Imager M2 and W Plan-Apochromat 63×/1.0 dipping objective. The software ZEN 2012 was used. Imaging parameters were as follows: pinhole diameter 1, resolution 256 × 256, bit depth 12, speed 7, line average 1, and zoom 2. The cytoplasm was bleached continuously starting after 3 scans with 2-s intervals using 100% laser power (488 nm/10 mW), and the nuclear fluorescence was recorded. The pre-bleach values were set to 1.

Assay [12] relates to TGF-β1. The assay is described as follows: Immunoblotting for TGF-β1. The format is cell-based. As to conditions: HuH7 cells, 5 μM. On the procedure:
as §2

T1 sequence (Q96QT4 whole entry): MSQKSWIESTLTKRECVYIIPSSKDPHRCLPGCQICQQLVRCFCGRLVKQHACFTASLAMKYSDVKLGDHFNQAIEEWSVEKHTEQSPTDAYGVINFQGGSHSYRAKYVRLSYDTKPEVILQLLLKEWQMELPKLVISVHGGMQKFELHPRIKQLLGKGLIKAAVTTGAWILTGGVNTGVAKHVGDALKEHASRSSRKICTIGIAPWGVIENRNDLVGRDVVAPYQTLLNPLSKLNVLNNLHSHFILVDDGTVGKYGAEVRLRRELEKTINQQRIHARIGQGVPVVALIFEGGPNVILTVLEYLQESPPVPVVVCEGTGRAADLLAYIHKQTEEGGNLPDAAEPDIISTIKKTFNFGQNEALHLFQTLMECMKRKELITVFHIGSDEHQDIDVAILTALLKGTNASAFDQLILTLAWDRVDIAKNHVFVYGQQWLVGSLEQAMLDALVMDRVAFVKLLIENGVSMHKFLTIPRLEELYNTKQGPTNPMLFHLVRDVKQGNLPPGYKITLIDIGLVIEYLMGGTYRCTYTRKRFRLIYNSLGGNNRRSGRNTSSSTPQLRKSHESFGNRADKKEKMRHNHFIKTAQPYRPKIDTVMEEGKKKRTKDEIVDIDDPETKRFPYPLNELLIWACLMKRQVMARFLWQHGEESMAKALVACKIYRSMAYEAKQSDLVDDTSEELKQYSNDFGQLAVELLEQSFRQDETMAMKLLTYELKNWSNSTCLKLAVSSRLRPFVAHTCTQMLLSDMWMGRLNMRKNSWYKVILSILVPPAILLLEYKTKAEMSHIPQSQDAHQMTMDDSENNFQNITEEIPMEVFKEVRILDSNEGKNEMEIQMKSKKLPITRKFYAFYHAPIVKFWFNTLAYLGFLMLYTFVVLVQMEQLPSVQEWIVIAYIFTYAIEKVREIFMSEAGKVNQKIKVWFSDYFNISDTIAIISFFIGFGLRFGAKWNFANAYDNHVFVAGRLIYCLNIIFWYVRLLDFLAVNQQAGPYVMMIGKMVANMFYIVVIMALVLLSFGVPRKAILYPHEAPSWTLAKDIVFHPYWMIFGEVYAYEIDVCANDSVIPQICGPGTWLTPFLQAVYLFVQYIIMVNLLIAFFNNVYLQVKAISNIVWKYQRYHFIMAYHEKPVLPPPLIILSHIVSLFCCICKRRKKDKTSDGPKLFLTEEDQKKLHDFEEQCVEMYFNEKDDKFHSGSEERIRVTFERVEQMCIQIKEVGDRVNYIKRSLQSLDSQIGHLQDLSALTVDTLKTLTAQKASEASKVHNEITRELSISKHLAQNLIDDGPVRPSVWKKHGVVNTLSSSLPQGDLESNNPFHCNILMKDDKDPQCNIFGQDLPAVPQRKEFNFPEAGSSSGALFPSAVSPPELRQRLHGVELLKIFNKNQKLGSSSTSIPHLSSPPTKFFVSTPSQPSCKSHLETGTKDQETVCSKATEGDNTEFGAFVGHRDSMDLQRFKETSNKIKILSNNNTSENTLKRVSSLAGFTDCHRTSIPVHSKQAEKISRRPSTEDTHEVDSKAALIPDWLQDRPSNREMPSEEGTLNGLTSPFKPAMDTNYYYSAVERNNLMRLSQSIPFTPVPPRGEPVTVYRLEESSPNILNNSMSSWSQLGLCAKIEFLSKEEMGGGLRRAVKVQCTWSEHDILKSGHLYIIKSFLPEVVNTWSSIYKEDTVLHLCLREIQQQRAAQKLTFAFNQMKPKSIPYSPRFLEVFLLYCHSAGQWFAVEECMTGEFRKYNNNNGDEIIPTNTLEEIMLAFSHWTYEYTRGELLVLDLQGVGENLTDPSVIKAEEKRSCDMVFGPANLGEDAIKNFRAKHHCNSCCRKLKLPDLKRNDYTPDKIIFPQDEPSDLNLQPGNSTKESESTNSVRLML
TRPM7, sequence (Q923J1 whole entry): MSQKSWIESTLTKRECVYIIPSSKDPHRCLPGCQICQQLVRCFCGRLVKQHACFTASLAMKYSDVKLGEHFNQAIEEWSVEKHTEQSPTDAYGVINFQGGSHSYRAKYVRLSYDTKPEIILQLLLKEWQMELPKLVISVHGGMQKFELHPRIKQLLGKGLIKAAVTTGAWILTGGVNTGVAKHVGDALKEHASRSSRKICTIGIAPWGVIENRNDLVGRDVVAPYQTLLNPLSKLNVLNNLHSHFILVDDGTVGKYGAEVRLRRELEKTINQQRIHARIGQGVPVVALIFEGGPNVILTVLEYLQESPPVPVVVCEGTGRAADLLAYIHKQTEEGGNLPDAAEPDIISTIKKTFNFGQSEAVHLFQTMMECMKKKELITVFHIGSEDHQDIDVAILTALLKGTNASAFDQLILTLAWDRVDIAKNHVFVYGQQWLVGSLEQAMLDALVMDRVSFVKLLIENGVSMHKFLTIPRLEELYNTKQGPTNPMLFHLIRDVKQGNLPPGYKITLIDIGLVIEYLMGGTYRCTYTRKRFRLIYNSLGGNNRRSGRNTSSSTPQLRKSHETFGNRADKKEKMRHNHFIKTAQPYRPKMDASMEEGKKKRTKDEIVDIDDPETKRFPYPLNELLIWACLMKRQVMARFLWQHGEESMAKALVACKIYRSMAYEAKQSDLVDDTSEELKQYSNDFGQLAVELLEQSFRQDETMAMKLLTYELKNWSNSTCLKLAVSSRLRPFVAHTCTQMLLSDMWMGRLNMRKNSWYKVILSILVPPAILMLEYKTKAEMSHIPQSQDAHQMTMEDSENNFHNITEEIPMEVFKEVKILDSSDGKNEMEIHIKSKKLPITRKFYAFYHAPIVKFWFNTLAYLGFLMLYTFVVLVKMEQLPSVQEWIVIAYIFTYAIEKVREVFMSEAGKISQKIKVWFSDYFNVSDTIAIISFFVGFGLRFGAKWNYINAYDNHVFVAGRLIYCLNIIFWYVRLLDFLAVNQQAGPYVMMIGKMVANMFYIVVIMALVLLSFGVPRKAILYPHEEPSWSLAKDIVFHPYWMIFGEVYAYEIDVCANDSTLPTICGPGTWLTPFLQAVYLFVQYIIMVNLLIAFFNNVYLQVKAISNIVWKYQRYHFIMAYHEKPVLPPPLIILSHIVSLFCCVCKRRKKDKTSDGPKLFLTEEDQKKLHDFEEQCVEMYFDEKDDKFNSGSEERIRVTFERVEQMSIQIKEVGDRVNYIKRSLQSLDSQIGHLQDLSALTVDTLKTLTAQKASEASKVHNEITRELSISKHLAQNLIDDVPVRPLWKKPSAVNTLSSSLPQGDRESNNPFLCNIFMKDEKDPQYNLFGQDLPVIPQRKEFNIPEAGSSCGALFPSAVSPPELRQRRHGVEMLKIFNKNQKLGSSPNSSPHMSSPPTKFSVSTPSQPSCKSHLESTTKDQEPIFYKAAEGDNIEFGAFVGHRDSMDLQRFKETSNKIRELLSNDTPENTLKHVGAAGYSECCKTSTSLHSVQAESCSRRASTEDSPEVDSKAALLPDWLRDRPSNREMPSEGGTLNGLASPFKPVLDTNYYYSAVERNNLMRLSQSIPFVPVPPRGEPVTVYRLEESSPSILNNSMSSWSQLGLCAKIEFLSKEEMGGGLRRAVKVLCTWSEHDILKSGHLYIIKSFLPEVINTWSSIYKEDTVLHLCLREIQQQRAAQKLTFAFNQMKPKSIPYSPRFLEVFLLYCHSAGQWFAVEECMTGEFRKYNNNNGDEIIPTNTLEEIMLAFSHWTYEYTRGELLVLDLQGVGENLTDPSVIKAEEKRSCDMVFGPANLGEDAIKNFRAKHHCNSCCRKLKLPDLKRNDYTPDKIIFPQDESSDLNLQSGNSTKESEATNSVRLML

As for `c1ccc2[nH]c(NC3CCCc4sccc43)nc2c1` (stereo not drawn) [compound 8], in assay [1], the “Hill slopes for TRPM7 inhibition” value is -1.210 and the “TRPM7 affinity compared to NS” value is reported as “<NS”. Further, the “Concentration that significantly increases SA-β-Gal-positive cells (senescence induction)” value in [2] amounted to 20 µM. In [3] (30 μM), the “Penetration of HuH7 cells into Matrigel” value is reported as “strongly impaired”. Moreover, in [4] (30 μM), the “RhoA-TRPM7 interaction (PLA)” value was “inhibited RhoA-TRPM7 interaction”. Also, the “MRTF-A nuclear localization reduced to” value in assay [5] (30 μM) stood at 12%. Further, in assay [6], the “Reduction in SRF activity” value amounted to 30% and the “SRF activity (5×SRE-luciferase)” value is “strong decrease”. The “Concentration required to significantly reduce TSPAN5 expression” value in assay [7] was 20 µM. The “SK3 affinity compared to NS” value in [8] was “<NS”.

Consider `Clc1cccc2c1CCCC2Nc1nc2ccccc2[nH]1` (stereo not drawn) [compound 5], for which, in assay [1], the “Hill slopes for TRPM7 inhibition” value is recorded as -1.448 and the “TRPM7 affinity compared to NS” value is reported as “>NS”. For the same compound, the “Concentration at which HuH7 cell growth is already significantly reduced” value in assay [9] amounted to 2.5 µM. The “Concentration that significantly increases SA-β-Gal-positive cells (senescence induction)” value in [2] was 5 µM. The “Fold lower concentration than NS8593 for inducing OIS” value in assay [2] (compared with NS8593) is given as 6 fold. Besides, in assay [10], the “Concentration that significantly increases SA-β-Gal-positive cells (senescence induction)” value came to 5 µM. In assay [3] (5 μM), the “Penetration of HuH7 cells into Matrigel” value is “strongly impaired”. Moreover, the “RhoA-TRPM7 interaction (PLA)” value in assay [4] (5 μM) is “inhibited RhoA-TRPM7 interaction”. The “MRTF-A nuclear localization reduced to” value in [5] (5 μM) amounted to 12%. In addition, the “MRTF-A-GFP fluorescence remaining in the nucleus after 80 s of bleaching” value in assay [11] is recorded as “less MRTF-A-GFP fluorescence remaining in the nucleus”. In assay [6], the “Reduction in SRF activity” value is 60% and the “SRF activity (5×SRE-luciferase)” value is “strong decrease”. Also, the “TGF-β1 expression (protein level)” value in assay [12] was “almost completely abolished”. For the same compound, the “TSPAN5 expression (protein level)” value in assay [7] (5 μM) is reported as “almost completely abolished”. Further, the “SK3 affinity compared to NS” value in assay [8] is listed as “=NS”.

As to `c1ccc2c(c1)CCCC2Nc1nc2ccccc2[nH]1` (stereo not drawn) [compound 1], the “Hill slopes for TRPM7 inhibition” value in assay [1] (rNS) is given as -1.370. The “TRPM7 affinity compared to NS” value in assay [1] is “=NS”. In addition, in assay [2], the “Concentration that significantly increases SA-β-Gal-positive cells (senescence induction)” value is 20 µM. Also, the “Penetration of HuH7 cells into Matrigel” value in assay [3] (30 μM) is reported as “strongly impaired”. Further, in [4] (30 μM), the “RhoA-TRPM7 interaction (PLA)” value is recorded as “inhibited RhoA-TRPM7 interaction”. This compound showed an inhibition at 30 µM in assay [5] (Homo sapiens, Huh-7, HuH7 cells, 30 μM (Figure 3B)) of 50%. Further, in assay [6], the “SRF activity (5×SRE-luciferase)” value is recorded as “strong decrease”. Also, the “SK3 affinity compared to NS” value in [8] is “=NS”.

Source of the values: PMC11387234, “Identification of novel inhibitors of the transcriptional coactivator MRTF-A for HCC therapy” (Molecular Therapy Oncology, 2024).
